Experimental data reported in patent US20230293491A1, “COMPOSITIONS AND METHODS FOR DIAGNOSIS AND TREATMENT OF CONDITIONS RELATED TO THE QUALITY OF AGING AND LONGEVITY” (EPITRACKER, INC., priority 2020, published 2023).

Target: T1, α-2 adrenoreceptor (Homo sapiens, UniProt P08913)
T1 construct: purchased Eurofins/DiscoverX SafetyScan47 panel
T1 sequence (P08913 1-465): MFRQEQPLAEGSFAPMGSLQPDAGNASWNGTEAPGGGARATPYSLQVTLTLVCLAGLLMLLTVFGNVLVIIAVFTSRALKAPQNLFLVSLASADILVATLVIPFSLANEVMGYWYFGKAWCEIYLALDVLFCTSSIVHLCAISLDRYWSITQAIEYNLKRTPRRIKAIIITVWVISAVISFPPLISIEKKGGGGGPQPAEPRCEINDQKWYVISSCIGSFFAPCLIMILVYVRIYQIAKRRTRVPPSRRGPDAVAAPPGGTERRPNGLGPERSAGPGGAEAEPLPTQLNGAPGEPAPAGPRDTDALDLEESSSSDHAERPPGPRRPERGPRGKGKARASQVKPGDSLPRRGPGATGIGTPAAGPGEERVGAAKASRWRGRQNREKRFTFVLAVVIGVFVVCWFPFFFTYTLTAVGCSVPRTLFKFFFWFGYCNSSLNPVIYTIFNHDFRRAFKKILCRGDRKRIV
Assay: Eurofins/DiscoverX SafetyScan47 panel, α-2 adrenoreceptor agonist activity
Format: cell-based
Conditions: compared to UK 14304 control; between 3 nM and 6.7 µM
Description: Given the associations between increased histidine betaine and improved health in the dolphin model, it was hypothesized that histidine betaine has direct therapeutic activities. To test this hypothesis, the Eurofins/DiscoverX SafetyScan47 panel was used to test histidine betaine at 10 concentrations for agonist and antagonist activities across 76 assays and 47 genes and targets that are relevant to compound safety and mechanisms of action, including G-protein coupled receptors, kinases, transporters, ion channels, nuclear receptors, and non-kinase enzymes. Detailed methods used for these assays and assay readouts are available from Eurofins/DiscoverX.
Of 47 pharmacological targets tested for activity with histidine betaine, the following had partial activities, achieving at least 15% that of internal positive controls between 3 nM and 6.7 µM: α-2 adrenoreceptor agonist (maximum activity = 27% compared to UK 14304 control), and cyclooxygenase-1 (COX1) inhibitor (maximum activity = 23% compared to indomethacin control) (FIG. 4).

C[N+](C)(C)C(Cc1cnc[nH]1)C(=O)[O-] (stereo not shown) [histidine betaine]
maximum activity, α-2 adrenoreceptor agonist: 27%
